ChEMBL document CHEMBL1201862, “PubChem BioAssay data set” (2004)
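Each compound was tested at five concentrations against cells in 96-well plates for 48 hours. GI50: concentration for 50% inhibition of growth.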 Calls of active or inactive are those of the source. No stated cut-off is given here; in the data, active = GI50 up to about 1.1 µM and inactive = higher.

Experiments:
Assay in all cases: NCI tumour cell line growth inhibition, 48 h
HOP-62 = tested on: HOP-62
RXF 393 = tested on: RXF 393
OVCAR-8 = tested on: OVCAR-8
SK-OV-3 = tested on: SK-OV-3
EKVX = tested on: EKVX
UACC-62 = tested on: UACC-62
T47D = tested on: T47D
NCI-H23 = tested on: NCI-H23
DU-145 = tested on: DU-145
IGROV-1 = tested on: IGROV-1
A549 = tested on: A549
SN12C = tested on: SN12C
BT-549 = tested on: BT-549
SK-MEL-28 = tested on: SK-MEL-28
UACC-257 = tested on: UACC-257
MCF7 = tested on: MCF7
PC-3 = tested on: PC-3
HCT-116 = tested on: HCT-116
NCI-H226 = tested on: NCI-H226
Malme-3M = tested on: Malme-3M

Measured: GI50

COc1cc(Br)cc2cc(C3=CSC4=NCCN34)c(=O)oc12
inactive: HOP-62 19.3 µM | RXF 393 17.5 µM | OVCAR-8 17.8 µM | SK-OV-3 27.9 µM | EKVX 17.7 µM | UACC-62 17.8 µM | T47D 17.5 µM | NCI-H23 20.1 µM | DU-145 17.8 µM | IGROV-1 17.6 µM | A549 21.3 µM | SN12C 17.5 µM | BT-549 22 µM | SK-MEL-28 29.5 µM | UACC-257 25.3 µM | MCF7 18 µM | PC-3 18.3 µM | HCT-116 17.8 µM

COC1CC(C)([N+](=O)[O-])C(O)C(C)O1 (centres undefined)
inactive: HOP-62 > 100 µM | RXF 393 > 100 µM | OVCAR-8 > 100 µM | SK-OV-3 > 100 µM | EKVX > 100 µM | UACC-62 > 100 µM | T47D > 100 µM | NCI-H23 > 100 µM | DU-145 > 100 µM | IGROV-1 > 100 µM | A549 > 100 µM | NCI-H226 > 100 µM | Malme-3M > 100 µM | SN12C > 100 µM | BT-549 91.6 µM | SK-MEL-28 > 100 µM | UACC-257 > 100 µM | MCF7 > 100 µM | PC-3 > 100 µM | HCT-116 > 100 µM

CCCCCC1=CC(=O)C1(Cl)Cl
inactive: HOP-62 21.4 µM | RXF 393 12.7 µM | OVCAR-8 10.6 µM | SK-OV-3 33.9 µM | EKVX 20.1 µM | UACC-62 10.9 µM | T47D 8.24 µM | NCI-H23 14.3 µM | DU-145 13.1 µM | IGROV-1 18.4 µM | A549 23.5 µM | NCI-H226 15.3 µM | Malme-3M 9.55 µM | SN12C 20.3 µM | BT-549 17.9 µM | SK-MEL-28 14.5 µM | UACC-257 12.2 µM | MCF7 8.11 µM | PC-3 14.5 µM | HCT-116 11.9 µM

CCCC(CC)c1c(O)c(O)c(C(CC)CCC)c(C(CC)CCC)c1C(CC)CCC (centres undefined)
inactive: HOP-62 > 10 µM | RXF 393 > 10 µM | OVCAR-8 > 10 µM | SK-OV-3 > 10 µM | EKVX > 10 µM | UACC-62 > 10 µM | T47D > 10 µM | NCI-H23 > 10 µM | DU-145 > 10 µM | IGROV-1 > 10 µM | A549 > 10 µM | NCI-H226 > 10 µM | Malme-3M > 10 µM | SN12C > 10 µM | BT-549 > 10 µM | SK-MEL-28 > 10 µM | UACC-257 > 10 µM | MCF7 > 10 µM | PC-3 > 10 µM | HCT-116 > 10 µM

O=c1c2cc(Cl)ccc2[nH]c2cc(O)cc(O)c12
inactive: HOP-62 > 10 µM | RXF 393 > 10 µM | OVCAR-8 > 10 µM | SK-OV-3 > 10 µM | EKVX 4.12 µM | UACC-62 > 10 µM | T47D > 10 µM | NCI-H23 9.02 µM | DU-145 > 10 µM | IGROV-1 > 10 µM | A549 > 10 µM | NCI-H226 1.61 µM | Malme-3M > 10 µM | SN12C > 10 µM | BT-549 > 10 µM | SK-MEL-28 > 10 µM | UACC-257 5.41 µM | MCF7 > 10 µM | PC-3 > 10 µM | HCT-116 > 10 µM

Cc1ccc(O)c(C2=CC(c3cccc(Cl)c3)SC(=N)N2)c1 (centres undefined)
inactive: HOP-62 23 µM | RXF 393 23.1 µM | OVCAR-8 37.8 µM | SK-OV-3 26.4 µM | EKVX 17.1 µM | UACC-62 13.7 µM | T47D 23.8 µM | NCI-H23 26.6 µM | DU-145 46.5 µM | IGROV-1 19.1 µM | A549 23.3 µM | NCI-H226 16.6 µM | Malme-3M 24.2 µM | SN12C 16.9 µM | BT-549 31.6 µM | UACC-257 20.6 µM | MCF7 29.9 µM | PC-3 16.6 µM | HCT-116 19.3 µM

Cc1cc(C)c(N[S+]([O-])c2ccc(Cl)cc2)c(C)c1 (centres undefined)
inactive: HOP-62 > 100 µM | RXF 393 > 100 µM | OVCAR-8 > 100 µM | EKVX > 100 µM | T47D > 100 µM | NCI-H23 > 100 µM | DU-145 > 100 µM | A549 > 100 µM | NCI-H226 > 100 µM | Malme-3M > 100 µM | SN12C > 100 µM | BT-549 > 100 µM | SK-MEL-28 > 100 µM | UACC-257 > 100 µM | MCF7 > 100 µM | PC-3 > 100 µM | HCT-116 > 100 µM
